ChEMBL document CHEMBL3988181, “GlaxoSmithKline Published Kinase Inhibitor Set 2 Onchocerca lienalis Screening Data”

Assay: GSK PKIS2: Screen against O. lienalis microfilariae, single point, at 3.1uM to assess reduction in motility. Compounds were also tested for cytotoxicity against Rhesus Monkey LLCMK2 cells.
Format: functional, Onchocerca lienalis, LLC-MK2
Conditions: CELL_LINE LLCMK2; CELL_SUPPLIER ECACC; CONC 3.1 uM; ORGANISM_SUPPLIER Extracted from peri-umbilical skin obtained from naturally infected cattle in the UK; temperature 37 degree C

Compound	MOTILITY REDUCTION/CYTOTOXICITY [%]
COc1cc2ncn(-c3cc(OCc4ccncc4)c(C(N)=O)s3)c2cc1OC	0
Nc1n[nH]c2cc(-c3ccccn3)ccc12	0
C[C@@H]1CC[C@H](C(=O)NC2CCCCC2)CN1c1cc(-c2ccc3c(N)n[nH]c3c2)nc(N)n1	0
Fc1ccc(-c2nc[nH]c2-c2ccncc2)cc1	0
O=C(NCc1cccs1)c1cc(C(=O)c2c(Cl)cccc2Cl)c[nH]1	0
O=C(Nc1n[nH]c2nc(-c3ccco3)c(Br)cc12)c1ccc(CN2CCCC2)cc1	0
CCn1c(-c2nonc2N)nc2cncc(Br)c21	33.4
Cc1ccc(S(=O)(=O)Nc2ccc(Nc3nccc(Nc4cccc5[nH]ncc45)n3)cc2)cc1	0
COc1cccc(CNC(=O)NC2CCN(c3ccnc(Nc4cc(OC)c(OC)c(OC)c4)n3)C2)c1 (stereo unspecified)	66.7
Oc1cccc(Nc2ccnc3cc(-c4ccncc4)ccc23)c1	0
O=C(NCCNc1ccnc(NCc2ccc(F)cc2)n1)c1cc2ccccc2s1	0
CSc1ccc(NC2=C(c3ccccc3Cl)C(=O)NC2=O)cc1	0
Cc1nccc(-c2c(-c3ccc(F)cc3)ncn2CCCN2CCOCC2)n1	0
Fc1cc(Cl)ccc1Nc1ccnc2cc(-c3ccc(CN4CCOCC4)o3)ccc12	0
CCn1c(-c2ccccn2)nc2cnccc21	0
COc1ccc(CNC(=O)NC2CCN(c3ccnc(Nc4ccc(F)cc4)n3)C2)cc1 (stereo unspecified)	0
CNC(=O)c1ccccc1Nc1nc(Nc2ccc(N3CCOCC3)cc2)ncc1Cl	80
Clc1cccc(-c2nc(Nc3ccncc3)c3ccccc3n2)c1	0
COc1ccccc1-c1ccc2c(NC(=O)C3CC3)n[nH]c2n1	0
NCC(C(=O)Nc1cc(Br)c(-c2ccnc3[nH]ccc23)s1)c1ccccc1 (stereo unspecified)	0
CN1C(=O)C(Nc2ccc(Cl)c(C(=O)O)c2)=C(c2ccc(Cl)cc2)C1=O	0
COc1cccc(C2=C(N(C)c3ccccc3)C(=O)NC2=O)c1	0
CCS(=O)(=O)c1ccc(OC)c(Nc2ncc(-c3ccc(F)cc3)o2)c1	0

Compound	MOTILITY REDUCTION/CYTOTOXICITY [%]
c1ccc(-c2cc3ccncc3cc2OC2CCNCC2)cc1	93.4
CN(C)CCN(C)C(=O)c1cc(-c2ccncc2)c(-c2ccc(Cl)c(O)c2)o1	20
COc1cc2ncnc(Nc3ccc(OCc4ccccc4Br)c(Cl)c3)c2cc1OC.Cl	0
COc1cccc(NC(=O)Nc2ccc(C)c(-c3ccc(C(=O)Nc4ccncc4)cc3)c2)c1	100
CN1CCN(CCNc2nc3ccc(Oc4ccc(NC(=O)Nc5cc(C(F)(F)F)ccc5F)cc4)cc3[nH]2)CC1	0
COC(=O)c1cccc(NC(=O)NCCNc2ccnc(Nc3ccc(F)cc3)n2)c1	0
CC(C)Nc1cc(-c2ccc3c(N)n[nH]c3c2)nc(N)n1	60
COc1ccc(CNC(=O)NC2CCN(c3ccnc(Nc4ccc(F)cc4)n3)CC2)cc1	33.4
O=C(Nc1n[nH]c2cc(-c3cccs3)ccc12)C1CC1	0
O=C1NC(=O)C(c2ccccc2)=C1Nc1cccc(O)c1	0
O=C1NC(=O)C(c2ccccc2Cl)=C1Nc1ccccc1	0
COc1ccc(C)c(Nc2ccnc(Nc3ccc(-c4cnc[nH]4)cc3)n2)c1	0
NCCC(NC(=O)c1cc(Br)c(-c2ccnc3[nH]ccc23)s1)c1ccccc1 (stereo unspecified)	13.4
COc1cc(Nc2nccc(N3CCC(NC(=O)c4cc5ccccc5s4)C3)n2)cc(OC)c1OC (stereo unspecified)	0
c1ccc(-c2cc(-c3c[nH]nc3-c3ccccn3)ccn2)cc1	0
COc1ccc(Nc2nccc(N3CCC(NC(=O)C(C)c4ccc(Cl)cc4)C3)n2)cc1 (stereo unspecified)	33.4
Nc1nc(-c2ccc3c(N)n[nH]c3c2)cc(N2CCCC(NC(=O)c3ccccc3)C2)n1 (stereo unspecified)	0
O=C(Nc1ccc(Oc2ccc3[nH]c(NC(=O)c4ccco4)nc3c2)cc1)Nc1cc(C(F)(F)F)ccc1F	0
CN(C)CCOc1ccc(-c2cc(-c3ccc(Cl)c(O)c3)c(-c3ccncc3)[nH]2)cc1	0
CCn1c(-c2ccoc2)nc2cnccc21	0
CNc1nc(-c2ccc3c(N)n[nH]c3c2)cc(N2C[C@@H](C(=O)NC3CCCCC3)OC[C@H]2C)n1	0
CNc1nccc(-c2ccc3c(N)n[nH]c3c2)n1	0
Nc1nc(-c2nccs2)c(-c2ccnc3ccccc23)s1	0

Compound	MOTILITY REDUCTION/CYTOTOXICITY [%]
O=C1NC(=O)C(c2ccc(Cl)cc2)=C1Nc1cccc(Cl)c1	33.4
O=C(Nc1n[nH]c2nc(-c3ccccc3)c(Cl)cc12)C1CC1	0
O=S(=O)(c1ccc(-c2ccnc3[nH]ccc23)cc1)N1CCCC1	0
COc1ccc2nc(-c3cccc(C)n3)nc(Nc3ccncc3)c2c1	0
Cc1ccc(-n2nc(C(C)(C)C)cc2NC(=O)Nc2ccc(OCCN3CCOCC3)c3ccccc23)cc1 [DORAMAPIMOD]	33.4
Cc1cn2c(=O)cc(N3CCOCC3)nc2n1Cc1cccc(Cl)c1Cl	0
Cc1ccc(C)c(NC(=O)NC2CCN(c3ccnc(Nc4ccc(F)cc4)n3)C2)c1 (stereo unspecified)	33.4
C[C@H]1CC[C@@H](C(=O)Nc2ccccc2)CN1c1cc(-c2ccc3c(N)n[nH]c3c2)nc(N)n1	0
CN(C)CC(O)COc1ccc(Nc2nccc(-c3cnn4nc(N5CCOCC5)ccc34)n2)cc1 (stereo unspecified)	0
O=C(Nc1n[nH]c2cc(-c3ccsc3)ccc12)C1CC1	0
Cc1cc(N2CCC(NS(=O)(=O)c3ccc(F)cc3)CC2)nc(Nc2cccc(C#N)c2)n1	0
Cc1cc(-c2c(-c3ccc(F)cc3)ncn2CCCN2CCOCC2)nc(N)n1	0
O=C(Nc1n[nH]c2nc(-c3ccc(O)cc3)ccc12)C1CC1	33.4
Cc1ccc(F)c(C(=O)Nc2cccc(-c3nn4ccccc4c3-c3ccnc(Nc4cccc(F)c4)n3)c2)c1F	0
CCn1c(-c2nonc2N)nc2cncc(CNC3CCNCC3)c21	0
Cc1cccc(-c2nc(Nc3ccncc3)c3sccc3n2)n1	46.7
NC[C@H](CC1CCCCC1)NC(=O)c1ccc(-c2ccnc3[nH]ccc23)s1	66.7
Nc1nc(-c2ccc3c(N)n[nH]c3c2)cc(N2CCCC2)n1	0
Cn1cncc1-c1ccc2ncnc(Nc3ccc(OCc4ccccc4)cc3)c2c1	0
Cc1cccc(-c2nc(Nc3ccc4c(cnn4C)c3)c3ccccc3n2)n1	100
O=C(Nc1cccc(-c2nn3ccccc3c2-c2ccnc(Nc3cccc(C(F)(F)F)c3)n2)c1)c1c(F)cccc1F	26.7
Cc1ccccc1CC(=O)N1CCc2cc(-c3cn(C)c4ncnc(N)c34)ccc21	33.4
Cn1cc(-c2ccc3c(c2)CCN3C(=O)Cc2cc(F)cc(C(F)(F)F)c2)c2c(N)ncnc21	0

Compound	MOTILITY REDUCTION/CYTOTOXICITY [%]
C[C@@H](Oc1cc(-n2cnc3ccc(-c4ccncc4)cc32)sc1C(N)=O)c1ccccc1Cl	0
Nc1ncc(-c2cn[nH]c2)c2scc(-c3ccc4c(c3)CCN4C(=O)Cc3ccccc3)c12	0
CC(C)c1nc(-c2cccc(NS(=O)(=O)c3ccccc3)c2)c(-c2ccnc(Nc3ccc4c(c3)CN(C)CC4)n2)s1	86.7
COc1ccc(Nc2nccc(N3CCC(NC(=O)c4cc5ccccc5s4)C3)n2)cc1 (stereo unspecified)	0
Clc1ccc(-c2cc(-c3c[nH]nc3-c3ccccn3)ccn2)cc1	0
CNc1nc(-c2ccc3c(N)n[nH]c3c2)cc(N2C[C@@H](C(=O)Nc3ccccc3)CC[C@H]2C)n1	0
Nc1ncnc2c1ncn2-c1cccc2ccccc12	0
Oc1cc(-c2nc(-c3ccccc3)[nH]c2-c2ccncc2)ccc1Cl	0
COc1ccc(CNC(=O)NC2CCN(c3ccnc(Nc4cc(OC)c(OC)c(OC)c4)n3)C2)cc1 (stereo unspecified)	0
COc1cc(Nc2nccc(N3CCC(NC(=O)C(C)c4ccc(Cl)cc4)C3)n2)cc(OC)c1OC (stereo unspecified)	66.7
Cn1cc(-c2ccc3c(c2)CCN3C(=O)Cc2cccc(Cl)c2)c2c(N)ncnc21	0
Cc1ccc(C)c(NC(=O)Nc2ccc(C)c(-c3ccc(C(=O)Nc4ccncc4)cc3)c2)c1	33.4
O=C(Nc1n[nH]c2nc(-c3cccs3)c(Br)cc12)C1CC1	0
COc1cc2nccc(Nc3ccc(Oc4ccccc4)cc3)c2cc1OC	0
COc1cc2nccc(Nc3cccc(Oc4ccccc4)c3)c2cc1OC	0
O=C(NC1CCN(c2ccnc(Nc3ccc(F)cc3)n2)C1)c1cc2ccccc2s1 (stereo unspecified)	0
Cn1cc(-c2ccc3c(c2)CCN3C(=O)Cc2cccc(F)c2)c2c(N)ncnc21	33.4
Nc1ncnc2scc(-c3ccc(NC(=O)Cc4cc(F)ccc4F)cc3)c12.O=C(O)C(F)(F)F	40
COC(=O)Nc1nc2ccc(Oc3ccc(NC(=O)Nc4cc(F)ccc4F)cc3)cc2[nH]1	40
Fc1ccc(-c2nc3n(c2-c2ccncc2)CCS3)cc1	13.4
CC(C)NCC(Cc1ccccc1)NC(=O)c1cc(Br)c(-c2ccnc3[nH]ccc23)s1 (stereo unspecified)	66.7
Cc1ccc(-c2nc(Nc3ccncc3)c3ccccc3n2)s1	0
